Measurements: patent US10918746B2, “Radioactive compositions and methods for their therapeutic use” (IsoTherapeutics Group LLC, priority 2011, dated 2021)

Columns and labels:
[1] = Biolocalization after injection into synovial cavity of right hind knee; format: in vivo, Sprague Dawley rats; conditions: Rats
Source text: One method of this invention uses a therapeutically-effective quantity of the compositions of Formula (II) and Formula (III), administered in one or more locations into or near a Non-intracavitary, undesirable tissue mass (e.g. cancer) in an animal or human in need of such treatment. Another method of this invention uses a therapeutically-effective quantity of these hydroxy carbonates, administered in one or more locations into or near the synovial cavity to treat arthritis. In either method the treatment is such that a major portion of the dose remains at the site of injection (defined as greater than about 90% of the dose remaining at the site after two half-lives of the radioisotopes; more preferably greater than about 95% of the dose remaining at the site after 2 half-lives of the radioactive isotopes; and most preferably greater than about 98% of the dose remaining at the site after 2 half-lives of the radioisotopes) as determined by biolocalization data obtained by dissection of an animal (e.g. BALB/c mice or Sprague Dawley rats); wherein the values are corrected for radioactive decay. It is also important to recognize that deposition of radioactivity in non-target organs and tissues can impact the safety and efficacy of the treatment. Ideally, in mice, less than about 1% remaining in the carcass (including the contralateral femur) and less than about 0.2% in the liver plus the kidneys and, in rats, less than about 1% in the skeletal structure and less than about 0.2% in the liver plus the kidneys. In the case of mice (injection into the gastrocnemius muscle of the right hind leg is used as a model for Non-Intracavitary tumors), all tissues, including the whole carcass, and bedding were collected such that 100% of the radioactivity was accounted for. In the case of rats (injections were directly into the synovial cavity), the size of the animal precluded counting the entire carcass. Therefore samples of blood, muscle, and bone (contralateral femur) were collected and the total masses of those tissues were calculated. The tissue masses were calculated based on rat body weight using equations fitted to data in the literature [Henry H. Donaldson, The Rat: Reference Tables and Data for the Albino Rat and the Norway Rat, (1915)].
Six male Sprague Dawley rats, under Isoflurane anesthesia, were each injected with 20 μL of the Composition prepared according to the procedure of Example 1 into the synovial cavity of the right hind knee using a ⅓ cc insulin syringe. The dose was deposited into the cavity via needle insertion through the skin. The rats were individually housed in cages with absorbent paper under a wire mesh bottom. […]
Due to the size of the animals, the carcass was not collected and measured as was done for the mice. The % ID in the skeletal structure, muscular structure and blood in the body were calculated from the activity in samples of those tissues (left femur, left thigh, blood) and rat body weight using equations fitted to data in the literature as was described earlier.
Samples were counted for radioactivity on a PerkinElmer Wizard automated NaI well detector. The data, shown below in Table 1, indicate the average percent injected dose in each tissue/sample.

[2] = Biolocalization two hours after delivery into a drilled hole in the femur; format: in vivo, Sprague Dawley rat; conditions: rat femur
Method: Ho-166 in 0.1M HCl was obtained from MURR. The pH was measured with pH paper showing a pH of about 1. A miniature drill was used to create a hole in the femur of an anesthetized Sprague Dawley rat. A miniature pump was used to deliver 3 μL of Ho-166 solution into the hole created by the drill. Two hours after the injection of the dose the rat was sacrificed and dissected. The amount of activity found in the site of injection was 5% of the injected dose. 52% of the dose was found in the liver and 23% of the dose was found in the rest of the bone.
A miniature drill was used to create a hole in the femur of an anesthetized Sprague Dawley rat. A miniature pump was used to deliver 2 μL of Sm-153-DOTMP solution into the hole created by the drill. Two hours after the injection of the dose the rat was sacrificed and dissected. The amount of activity found in the site of injection was 9% of the injected dose and about 20% was found in the rest of the bone. An average of 65% of the injected dose was found in the urine.

O=C([O-])CN(CCN(CC(=O)[O-])CC(=O)[O-])CCN(CC(=O)[O-])CC(=O)[O-].[117Sn+4].[H+] [Example K]
Average % ID, Calculated Blood ([1]; 14 days): 0.0 % ID
Average % ID, Calculated Muscle ([1]; 14 days): 0.3 % ID
Average % ID, Calculated Skeleton ([1]; 14 days): 28.0 % ID
Average % ID, Heart ([1]; 14 days): 0.0 % ID
Average % ID, Kidney ([1]; 14 days): 0.4 % ID
Average % ID, Leg (injection site) ([1]; 14 days): 31.2 % ID
Average % ID, Lg. Intestine ([1]; 14 days): 0.0 % ID
Average % ID, Liver ([1]; 14 days): 0.4 % ID
Average % ID, Lung ([1]; 14 days): 0.0 % ID
Average % ID, Sm. Intestine ([1]; 14 days): 0.0 % ID
Average % ID, Spleen ([1]; 14 days): 0.0 % ID
Average % ID, Stomach ([1]; 14 days): 0.0 % ID
Average % ID, Urine/Feces ([1]; 14 days): 39.5 % ID
Average % ID, Calculated Blood ([1]; 28 days): 0.0 % ID
Average % ID, Calculated Muscle ([1]; 28 days): 0.1 % ID
Average % ID, Calculated Skeleton ([1]; 28 days): 30.0 % ID
Average % ID, Heart ([1]; 28 days): 0.0 % ID
Average % ID, Kidney ([1]; 28 days): 0.3 % ID
Average % ID, Leg (injection site) ([1]; 28 days): 22.6 % ID
Average % ID, Lg. Intestine ([1]; 28 days): 0.0 % ID
Average % ID, Liver ([1]; 28 days): 0.4 % ID
Average % ID, Lung ([1]; 28 days): 0.0 % ID
Average % ID, Sm. Intestine ([1]; 28 days): 0.0 % ID
Average % ID, Spleen ([1]; 28 days): 0.0 % ID
Average % ID, Stomach ([1]; 28 days): 0.0 % ID
Average % ID, Urine/Feces ([1]; 28 days): 46.6 % ID

O=P([O-])(O)CN1CCN(CP(=O)([O-])O)CCN(CP(=O)(O)O)CCN(CP(=O)([O-])O)CC1.[153Sm+3] [Sm-153-DOTMP]
amount of activity found in the site of injection [2]: 9 % of the injected dose
dose found in the rest of the bone ([2]; two hours after injection): about 20%
injected dose found in the urine ([2]; two hours after injection, average): 65 % of the injected dose

[166Ho+3].[Cl-].[Cl-].[Cl-] [Example G, Ho-166 Chloride]
amount of activity found in the site of injection [2]: 5 % of the injected dose
dose found in the liver ([2]; two hours after injection): 52 % of the dose
dose found in the rest of the bone ([2]; two hours after injection): 23%
